# Data published in ChEMBL document CHEMBL6127070, “Design, synthesis, and molecular dynamic simulations of some novel benzo[d]thiazoles with anti-virulence activity against Pseudomonas aeruginosa” (Eur J Med Chem, 2024).
# The source made the active and inactive calls. The rule behind the calls is not given here.
# How the values were obtained:
# Pseudomonas aeruginosa [1] = assay: Antivirulence activity in Pseudomonas aeruginosa assessed as inhibition of pyocyanin production by measuring OD at […] at sub-MIC by chloroform-HCl extraction method relative to control; format: functional
# Bacillus subtilis = assay: Antimicrobial activity against Bacillus subtilis ATCC 6633 assessed as growth inhibition zone by agar diffusion method; format: functional
# Pseudomonas aeruginosa [2] = assay: Inhibition of biofilm formation in Pseudomonas aeruginosa assessed as absorbance by measuring OD at 570 nm at sub-MIC by crystal violet staining based analysis (reference value: 0.635 +/- 0.014); format: functional
# Pseudomonas aeruginosa [3] = assay: Antibacterial activity against Pseudomonas aeruginosa by CLSI protocol based broth microdilution method; format: functional; conditions: for MIC: Pseudomonas aeruginosa
# Escherichia coli = assay: Antimicrobial activity against Escherichia coli ATCC 25922 assessed as growth inhibition zone by agar diffusion method; format: functional
# Pseudomonas aeruginosa [4] = assay: Antivirulence activity in Pseudomonas aeruginosa assessed as inhibition of pyocyanin production at sub-MIC by chloroform-HCl extraction method relative to control; format: functional
# Pseudomonas aeruginosa [5] = assay: Antivirulence activity in Pseudomonas aeruginosa assessed as inhibition of rhamnolipids production at sub-MIC by spectrophotometric method relative to control; format: functional
# Candida albicans = assay: Antimicrobial activity against Candida albicans ATCC 60193 assessed as growth inhibition zone by agar diffusion method; format: functional
# Pseudomonas aeruginosa [6] = assay: Antimicrobial activity against Pseudomonas aeruginosa ATCC 27853 assessed as growth inhibition zone by agar diffusion method; format: functional
# Klebsiella pneumoniae = assay: Antimicrobial activity against Klebsiella pneumoniae ATCC 700603 assessed as growth inhibition zone by agar diffusion method; format: functional
# Pseudomonas aeruginosa [7] = assay: Inhibition of biofilm formation in Pseudomonas aeruginosa at sub-MIC by crystal violet staining based analysis relative to control; format: functional
# Staphylococcus aureus = assay: Antimicrobial activity against Staphylococcus aureus ATCC 43300 assessed as growth inhibition zone by agar diffusion method; format: functional
# Pseudomonas aeruginosa [8] = assay: Antibacterial activity against Pseudomonas aeruginosa assessed as effect on bacterial growth at 18.75 microg/ml incubated for 24 hrs by growth curve analysis; format: functional, organism-based; conditions: dose 18.75 µg/ml
# Pseudomonas aeruginosa [9] = assay: Antibacterial activity against Pseudomonas aeruginosa assessed as effect on bacterial growth at 9.375 microg/ml incubated for 24 hrs by growth curve analysis; format: functional, organism-based; conditions: dose 9.375 µg/ml
Structure (SMILES),OD (Pseudomonas aeruginosa [1]),inhibition zone (IZ) (Bacillus subtilis),OD (Pseudomonas aeruginosa [2]),SubMIC (Pseudomonas aeruginosa [3]),MIC (Pseudomonas aeruginosa [3]),inhibition zone (IZ) (Escherichia coli),inhibition (INH) (Pseudomonas aeruginosa [4]),inhibition (INH) (Pseudomonas aeruginosa [5]),inhibition zone (IZ) (Candida albicans),inhibition zone (IZ) (Pseudomonas aeruginosa [6]),inhibition zone (IZ) (Klebsiella pneumoniae),inhibition (INH) (Pseudomonas aeruginosa [7]),inhibition zone (IZ) (Staphylococcus aureus),Activity (Pseudomonas aeruginosa [8]),Activity (Pseudomonas aeruginosa [9])
Cc1nc2c(-c3nc4ccccc4s3)cnn2c(C)c1Cl,0.305,21 mm,0.406,18.75 µg/mL,37.5 µg/mL,21 mm,31.5%,21.2%,22 mm,21 mm,22 mm,36.1%,19 mm,inactive,–
N#C/C(=C\c1ccc(N2CCCCC2)cc1)c1nc2ccccc2s1,0.251,21 mm,0.303,9.375 µg/mL,18.8 µg/mL,25 mm,43.6%,34.9%,25 mm,23 mm,24 mm,52.3%,24 mm,–,inactive
Brc1ccc(-c2ccnc3c(-c4nc5ccccc5s4)cnn23)cc1,0.376,16 mm,0.508,18.75 µg/mL,37.5 µg/mL,18 mm,15.5%,9.5%,20 mm,19 mm,17 mm,20%,19 mm,inactive,–
Clc1ccc(-c2ccnc3c(-c4nc5ccccc5s4)cnn23)cc1,0.205,21 mm,0.287,9.375 µg/mL,18.8 µg/mL,20 mm,53.9%,42.5%,26 mm,23 mm,25 mm,54.8%,25 mm,–,inactive
Cc1ccc(-c2ccnc3c(-c4nc5ccccc5s4)cnn23)cc1,0.18,20 mm,0.26,9.375 µg/mL,18.8 µg/mL,22 mm,59.6%,45.3%,28 mm,24 mm,26 mm,59.1%,26 mm,–,inactive
OC(Cn1cncn1)(Cn1cncn1)c1ccc(F)cc1F [FLUCONAZOLE],–,–,–,–,–,–,–,–,30 mm,–,–,–,–,–,–
CC1CCN(c2ccc(/C=C(\C#N)c3nc4ccccc4s3)cc2)CC1,0.264,20 mm,0.317,9.375 µg/mL,18.8 µg/mL,22 mm,40.7%,30.9%,24 mm,22 mm,27 mm,50.1%,22 mm,–,inactive
c1ccc(-c2ccnc3c(-c4nc5ccccc5s4)cnn23)cc1,0.346,17 mm,0.472,18.75 µg/mL,37.5 µg/mL,19 mm,22.2%,13.3%,21 mm,20 mm,21 mm,25.7%,20 mm,inactive,–
C[C@@H](O)[C@H]1C(=O)N2C(C(=O)O)=C(SCCNC=N)C[C@H]12 [IMIPENEM ANHYDROUS],–,20 mm,–,–,93.9 µM,22 mm,–,–,–,12 mm,18 mm,–,24 mm,–,–
N#C/C(=C\c1ccc(N2CCOCC2)cc1)c1nc2ccccc2s1,0.289,19 mm,0.383,18.75 µg/mL,37.5 µg/mL,24 mm,35.1%,24.3%,24 mm,21 mm,20 mm,39.7%,23 mm,inactive,–
COc1ccc(-c2ccnc3c(-c4nc5ccccc5s4)cnn23)cc1,0.268,19 mm,0.342,9.375 µg/mL,18.8 µg/mL,22 mm,39.8%,28.6%,23 mm,22 mm,19 mm,46.1%,17 mm,–,inactive
